Assay results from patent publication US4874856A, “3-(substituted)propenyl-7-(aminothiazolylacetamido) ceph-3-em-4-carboxylic acids and esters thereof” (Bristol-Myers Company, priority 1987, dated 1989).
Values after ≈ are worked out from the molar mass of the structure shown. Like-named read-outs stand apart in the source and are kept apart here.

What was measured:
[1] = system: Penicillin(PC)sensitive S. aureus; assay: In vitro MIC, two-fold serial agar dilution in Mueller-Hinton agar, Gp-Ia strains; format: cell-based; details: Staphylococcus aureus; GpIa, 5 strains; read-out: Geometric mean of MIC, GpIa
Description: (§1) The in vitro antibacterial activity of the parent cephalosporanic acids of Formula I wherein R^4 is hydrogen is shown in Table 1 in terms of geometric mean of the Minimum Inhibitory Concentrations (MIC's) which were determined by the two-fold serial agar dilution method in Mueller-Hinton agar against 25 strains of test organisms in five groups.
Gp-Ia: Penicillin(PC)sensitive S. aureus

[2] = system: PCresistant S. aureus; assay: In vitro MIC, two-fold serial agar dilution in Mueller-Hinton agar, GpIb strains; format: cell-based; details: Staphylococcus aureus, 5 strains, read-out: Geometric mean of MIC, GpIb
Description: as §1
GpIb: PCresistant S. aureus

[3] = system: Cephalothin(CET)sensitive E. coli (2 strains), K. pneumoniae (1) an P. mirabilis (2); assay: In vitro MIC, two-fold serial agar dilution in Mueller-Hinton agar, GnIa strains; format: cell-based; details: 5 strains, read-out: Geometric mean of MIC, GnIa
Description: as §1
GnIa: Cephalothin(CET)sensitive E. coli (2 strains), K. pneumoniae (1) an […]

[4] = system: CETresistant E. coli (3) and K. pneumoniae (2); assay: In vitro MIC, two-fold serial agar dilution in Mueller-Hinton agar, GnIb strains; format: cell-based; details: Escherichia coli, 5 strains, read-out: Geometric mean of MIC, GnIb
Description: as §1
GnIb: CETresistant E. coli (3) and K. pneumoniae (2)

[5] = system: M. morcanii (1), E. cloacae (2) and S. marcescens (2); assay: In vitro MIC, two-fold serial agar dilution in Mueller-Hinton agar, GnII strains; format: cell-based; details: Enterobacter cloacae, read-out: Geometric mean of MIC, GnII
Description: as §1
GnII: M. morcanii (1), E. cloacae (2) and S. marcescens (2)

[6] = Mouse blood levels after oral administration (Table 2); format: in vivo
[7] = system: S. aureus Smith; assay: Evaluation in vivo (mouse), oral PD50 against S. aureus Smith; details: Staphylococcus aureus
From the text: (§2) Tables 4 and 5 show the in vivo activity of pro-drug esters 88-92 including the bioavailability thereof as reflected by blood levels.

[8] = system: E. coli Juhl; assay: Evaluation in vivo (mouse), oral PD50 against E. coli Juhl; details: Escherichia coli
From the text: as §2

[9] = Bioavailability in mouse as reflected by blood levels (Table 5); format: in vivo; details: oral, Table 5 (definition given as drawing 18)
From the text: as §2

[10] = Evaluation in vivo (mouse), blood concentration (Table 4); details: po, treated orally, single 100 mg/kg dose
Description: as §2
*treated orally, single 100 mg/kg. dose

[11] = mouse blood, 20 mg/kg, read-out: AUC
[12] = mouse blood, 20 mg/kg, read-out: T 1/2 (converted)
[13] = mouse blood, 100 mg/kg, read-out: AUC
[14] = mouse blood, 100 mg/kg, read-out: Cmax
[15] = mouse blood, 100 mg/kg, read-out: T 1/2 (converted)

Row | Structure (SMILES) | MIC [1] | MIC [2] | MIC [3] | MIC [4] | MIC [5] | ED50 ([7]; Table 5) | ED50 ([8]; Table 5) | bioavailability [9] | further results
1 | N[C@@H](C(=O)N[C@@H]1C(=O)N2C(C(=O)O)=C(Cl)CS[C@H]12)c1ccccc1 [Cefaclor, reference compound] | 0.7 µg/mL (≈ 1.9 µM) | 4.7 µg/mL (≈ 12.8 µM) | 0.92 µg/mL (≈ 2.5 µM) | 11 µg/mL (≈ 29.9 µM) | > 100 µg/mL | – | – | – | AUC ([6]; mouse, in vivo, 20 mg/kg): 8900 ng·h/mL; half-life ([6]; mouse, in vivo, 20 mg/kg): 0.91 h; AUC ([6]; mouse, in vivo, 100 mg/kg): 35000 ng·h/mL; half-life ([6]; mouse, in vivo, 100 mg/kg): 1.2 h
2 | CC1=C(C(=O)O)N2C(=O)[C@@H](NC(=O)[C@H](N)c3ccc(O)cc3)[C@H]2SC1 [Cefadroxil, reference compound] | 1.4 µg/mL (≈ 3.85 µM) | 3.6 µg/mL (≈ 9.91 µM) | 8.3 µg/mL (≈ 22.8 µM) | 17 µg/mL (≈ 46.8 µM) | > 100 µg/mL | – | – | – | AUC [6, 11]: 16000 ng·h/mL; half-life [6, 12]: 1.4 h; AUC [6, 13]: 69000 ng·h/mL; Cmax [6, 14]: 57000 ng/mL; half-life [6, 15]: 1.6 h
3 | C=CC1=C(C(=O)O)N2C(=O)[C@@H](NC(=O)/C(=N\OCC(=O)O)c3csc(N)n3)[C@H]2SC1 [Cefixime, cefixime] | 4.7 µg/mL (≈ 10.4 µM) | 12.5 µg/mL (≈ 27.6 µM) | 0.016 µg/mL (≈ 0.0353 µM) | 3.1 µg/mL (≈ 6.84 µM) | 3.2 µg/mL (≈ 7.06 µM) | – | – | – | AUC [6, 11]: 25000 ng·h/mL; Cmax ([6]; mouse blood, 20 mg/kg, read-out: Cmax): 10000 ng/mL; half-life [6, 12]: 1.5 h; AUC [6, 13]: 75000 ng·h/mL; Cmax [6, 14]: 28000 ng/mL; half-life [6, 15]: 1.6 h
4 | C/C=C\C1=C(C(=O)OC(C)OC(C)=O)N2C(=O)[C@@H](NC(=O)/C(=N\O)c3csc(N)n3)[C@H]2SC1 (stereo partly drawn) [Compound 30, 1-acetoxyethyl 7β-[(Z)-2-(2-aminothiazol-4-yl)-2-(hydroxyimino)acetamido]-3-[(Z)-prop-1-en-1-yl]-3-cephem-4-carboxylate] | – | – | – | – | – | 2 mg/kg | 1.1 mg/kg | 76% | AUC ([6]; mouse, in vivo, 20 mg/kg): 16000 ng·h/mL; Cmax ([6]; mouse, in vivo, 20 mg/kg): 9900 ng/mL; half-life ([6]; mouse, in vivo, 20 mg/kg): 1 h; AUC ([6]; mouse, in vivo, 100 mg/kg): 61000 ng·h/mL; Cmax ([6]; mouse, in vivo, 100 mg/kg): 36000 ng/mL; half-life ([6]; mouse, in vivo, 100 mg/kg): 1.3 h
5 | C/C=C/C1=C(C(=O)O)N2C(=O)[C@@H](NC(=O)/C(=N\O)c3csc(N)n3)[C@H]2SC1 [Compound 33, 7β-[(Z)-2-(2-aminothiazol-4-yl)-2-(hydroxyimino)acetamido]-3-[(E)-prop-1-en-1-yl]-3-cephem-4-carboxylic acid] | 0.23 µg/mL (≈ 0.562 µM) | 0.61 µg/mL (≈ 1.49 µM) | 0.46 µg/mL (≈ 1.12 µM) | 1.4 µg/mL (≈ 3.42 µM) | 22 µg/mL (≈ 53.7 µM) | – | – | – | –
6 | CC(=O)OC/C=C\C1=C(C(=O)O)N2C(=O)[C@@H](NC(=O)/C(=N\O)c3csc(N)n3)[C@H]2SC1 [Compound 37, 7β-[(Z)-2-(2-aminothiazol-4-yl)-2-(hydroxyimino)acetamido]-3-[(Z)-3-acetoxyprop-1-en-1-yl]-3-cephem-4-carboxylic acid] | 0.17 µg/mL (≈ 0.364 µM) | 0.4 µg/mL (≈ 0.856 µM) | 0.025 µg/mL (≈ 0.0535 µM) | 0.1 µg/mL (≈ 0.214 µM) | 1.1 µg/mL (≈ 2.35 µM) | – | – | – | –
7 | C/C=C\C1=C(C(=O)O)N2C(=O)[C@@H](NC(=O)/C(=N\OC(C)=O)c3csc(N)n3)[C@H]2SC1 [Compound 53, 7β-[(Z)-2-(2-aminothiazol-4-yl)-2-(acetoxyimino)acetamido]-3-[(Z)-prop-1-en-1-yl]-3-cephem-4-carboxylic acid] | 0.17 µg/mL (≈ 0.377 µM) | 0.4 µg/mL (≈ 0.886 µM) | 0.057 µg/mL (≈ 0.126 µM) | 0.26 µg/mL (≈ 0.576 µM) | 3.6 µg/mL (≈ 7.97 µM) | – | – | – | –
8 | C/C=C\C1=C(C(=O)OC(C)OC(C)=O)N2C(=O)[C@@H](NC(=O)/C(=N\OC(C)=O)c3csc(N)n3)[C@H]2SC1 (stereo partly drawn) [Compound 55, 1-acetoxyethyl 7β-[(Z)-2-(2-aminothiazol-4-yl)-2-(acetoxyimino)acetamido]-3-[(Z)-prop-1-en-1-yl]-3-cephem-4-carboxylate] | – | – | – | – | – | – | – | – | AUC ([6]; mouse, in vivo, 20 mg/kg): 9400 ng·h/mL; Cmax ([6]; mouse, in vivo, 20 mg/kg): 7600 ng/mL; half-life ([6]; mouse, in vivo, 20 mg/kg): 0.8 h; AUC ([6]; mouse, in vivo, 100 mg/kg): 40000 ng·h/mL; Cmax ([6]; mouse, in vivo, 100 mg/kg): 27000 ng/mL; half-life ([6]; mouse, in vivo, 100 mg/kg): 0.8 h
9 | C/C=C\C1=C(C(=O)OCc2oc(=O)oc2C)N2C(=O)[C@@H](NC(=O)/C(=N\O)c3csc(N)n3)[C@H]2SC1 [Compound 88, (5-methyl-2-oxo-1,3-dioxolen-4-yl)methyl 7β-[(Z)-2-(2-aminothiazol-4-yl)-2-(hydroxyimino)-acetamido]-3-[(Z)-prop-1-en-1-yl]-3-cephem-4-carboxylate] | – | – | – | – | – | – | – | – | ED50 ([7]; Table 4): 1.1 mg/kg; ED50 ([8]; Table 4): 2.7 mg/kg; AUC [10]: 44000 ng·h/mL; Cmax [10]: 16000 ng/mL
10 | C/C=C\C1=C(C(=O)OC(C)OC(=O)OCC)N2C(=O)[C@@H](NC(=O)/C(=N\O)c3csc(N)n3)[C@H]2SC1 (stereo partly drawn) [Compound 89, 1-(ethoxycarbonyloxy)ethyl 7β-[(Z)-2-(2-aminothiazol-4-yl)-2-(hydroxyimino)-acetamido]-3-[(Z)-prop-1-en-1-yl]-3-cephem-4-carboxylate] | – | – | – | – | – | – | – | – | ED50 ([7]; Table 4): 0.77 mg/kg; ED50 ([8]; Table 4): 0.67 mg/kg; AUC [10]: 74000 ng·h/mL; Cmax [10]: 32000 ng/mL
11 | C/C=C\C1=C(C(=O)OC(C)OC(=O)OC2CCCCC2)N2C(=O)C(NC(=O)/C(=N\O)c3csc(N)n3)[C@H]2SC1 (some centres unmarked) [Compound 90, 1-(cyclohexyloxycarbonyloxy)ethyl 7-[(Z)-2-(2-aminothiazol-4-yl)-2-(hydroxyimino)acetamido]-3-[(Z)-1-propenyl]-3-cephem-4-carboxylate] | – | – | – | – | – | 3.2 mg/kg | 1.5 mg/kg | 78% | –
12 | C/C=C\C1=C(C(=O)OC(C)OC(=O)C(C)(C)C)N2C(=O)C(NC(=O)/C(=N\O)c3csc(N)n3)[C@H]2SC1 (some centres unmarked) [Compound 91, 1-(pivaloyloxy)ethyl 7-[(Z)-2-(2-aminothiazol-4-yl)-2-(hydroxyimino)acetamido]-3-[(Z)-1-propenyl]-3-cephem-4-carboxylate] | – | – | – | – | – | 2 mg/kg | 3.5 mg/kg | 60% | –
13 | C/C=C\C1=C(C(=O)OC(C)OC(=O)CC2CCCCC2)N2C(=O)C(NC(=O)/C(=N\O)c3csc(N)n3)[C@H]2SC1 (some centres unmarked) [Compound 92, 1-(cyclohexylacetoxy)ethyl 7-[(Z)-2-(2-aminothiazol-4-yl)-2-(hydroxyimino)acetamido]-3-[(Z)-1-propenyl]-3-cephem-4-carboxylate] | – | – | – | – | – | 2.9 mg/kg | 1.4 mg/kg | 87% | –
